Laboratory results published in ChEMBL document CHEMBL1201862, “PubChem BioAssay data set” (2004).
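48-hour exposure; five concentrations; linearly interpolated endpoints. At the GI50, growth is halved.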 Active and inactive are the calls of the source. Cut-off read from the data, not from the text of the source: active = GI50 up to about 1.1 µM and inactive = higher.

How the values were obtained:
Assay in all cases: DTP human tumour cell line panel, 48 h
SF-295 = test system: SF-295
HCT-116 = test system: HCT-116
HL-60 = test system: HL-60
BT-549 = test system: BT-549
PC-3 = test system: PC-3
A498 = test system: A498
SN12C = test system: SN12C
HCC 2998 = test system: HCC 2998
NCI-H23 = test system: NCI-H23
HCT-15 = test system: HCT-15
MCF7 = test system: MCF7
OVCAR-4 = test system: OVCAR-4
U-251 = test system: U-251
CAKI-1 = test system: CAKI-1
UACC-62 = test system: UACC-62
SK-MEL-28 = test system: SK-MEL-28
Malme-3M = test system: Malme-3M
RXF 393 = test system: RXF 393
SF-268 = test system: SF-268

Compound	GI50 (SF-295)	GI50 (HCT-116)	GI50 (HL-60)	GI50 (BT-549)	GI50 (PC-3)	GI50 (A498)	GI50 (SN12C)	GI50 (HCC 2998)	GI50 (NCI-H23)	GI50 (HCT-15) [µM]	GI50 (MCF7)	GI50 (OVCAR-4)	GI50 (U-251)	GI50 (CAKI-1)	GI50 (UACC-62)	GI50 (SK-MEL-28)	GI50 (Malme-3M)	GI50 (RXF 393)	GI50 (SF-268)
C[N+](C)(C)CCN(Cc1cccs1)c1ccccn1	> 100 µM (inactive)	> 100 µM (inactive)	> 100 µM (inactive)	47.5 µM (inactive)	> 100 µM (inactive)	> 100 µM (inactive)	90.4 µM (inactive)	> 100 µM (inactive)	88.1 µM (inactive)	> 100	> 100 µM (inactive)	> 100 µM (inactive)	> 100 µM (inactive)	> 100 µM (inactive)	> 100 µM (inactive)	> 100 µM (inactive)	> 100 µM (inactive)	> 100 µM (inactive)	86.7 µM (inactive)
O=c1[nH]nc(-c2ccccc2)n1/N=C\c1ccccc1	29 µM (inactive)	> 100 µM (inactive)	> 100 µM (inactive)	> 100 µM (inactive)	> 100 µM (inactive)	> 100 µM (inactive)	> 100 µM (inactive)	> 100 µM (inactive)	> 100 µM (inactive)	> 100	> 100 µM (inactive)	> 100 µM (inactive)	> 100 µM (inactive)	> 100 µM (inactive)	> 100 µM (inactive)	> 100 µM (inactive)	> 100 µM (inactive)	13.2 µM (inactive)	31 µM (inactive)
O=C(O)c1ccccc1/C=C1\Cc2ccccc2C1=O	> 100 µM (inactive)	> 100 µM (inactive)	> 100 µM (inactive)	19.3 µM (inactive)	> 100 µM (inactive)	> 100 µM (inactive)	> 100 µM (inactive)	> 100 µM (inactive)	> 100 µM (inactive)	> 100	> 100 µM (inactive)	> 100 µM (inactive)	> 100 µM (inactive)	> 100 µM (inactive)	> 100 µM (inactive)	> 100 µM (inactive)	> 100 µM (inactive)	> 100 µM (inactive)	> 100 µM (inactive)
Cc1nc2ccc(NC(=S)Nc3ccccc3)cc2c(=O)n1-c1ccccc1	> 100 µM (inactive)	> 100 µM (inactive)	31.8 µM (inactive)	> 100 µM (inactive)	> 100 µM (inactive)	> 100 µM (inactive)	> 100 µM (inactive)	66.4 µM (inactive)	> 100 µM (inactive)	> 100	> 100 µM (inactive)	> 100 µM (inactive)	57.7 µM (inactive)	> 100 µM (inactive)	> 100 µM (inactive)	62.2 µM (inactive)	> 100 µM (inactive)	> 100 µM (inactive)	> 100 µM (inactive)
COc1cccc(C2c3cc4c(cc3OC(O)C2C)OCO4)c1OC (stereo not given)	3.26 µM (inactive)	2.35 µM (inactive)	1.87 µM (inactive)	10.1 µM (inactive)	4.49 µM (inactive)	4.49 µM (inactive)	4.78 µM (inactive)	14.9 µM (inactive)	14.4 µM (inactive)	2.1	5.28 µM (inactive)	–	3.27 µM (inactive)	2.14 µM (inactive)	13.9 µM (inactive)	13.3 µM (inactive)	11 µM (inactive)	3.4 µM (inactive)	7.36 µM (inactive)
C=C1C(=O)O[C@H]2C[C@@H]1C(=O)CC(C)CCCC(C)=CCC[C@@]2(C)O (stereo not given in full)	> 25 µM (inactive)	> 25 µM (inactive)	> 25 µM (inactive)	> 25 µM (inactive)	> 25 µM (inactive)	> 25 µM (inactive)	> 25 µM (inactive)	> 25 µM (inactive)	> 25 µM (inactive)	> 25	> 25 µM (inactive)	> 25 µM (inactive)	> 25 µM (inactive)	–	> 25 µM (inactive)	> 25 µM (inactive)	> 25 µM (inactive)	> 25 µM (inactive)	> 25 µM (inactive)
Cc1cc(O)c2cc3c(O)c(O)ccc3cc2c1	0.619 µM (active)	0.494 µM (active)	1.73 µM (inactive)	0.726 µM (active)	0.302 µM (active)	3.12 µM (inactive)	2.46 µM (inactive)	0.817 µM (active)	1.24 µM (inactive)	1.2	2.27 µM (inactive)	0.536 µM (active)	0.42 µM (active)	2.08 µM (inactive)	1.52 µM (inactive)	9.51 µM (inactive)	1.4 µM (inactive)	0.713 µM (active)	1.07 µM (active)
C/C(=N\Nc1nc2ccccc2[nH]1)c1cnccn1	1.77 µM (inactive)	0.379 µM (active)	0.0589 µM (active)	6.04 µM (inactive)	3.92 µM (inactive)	1.98 µM (inactive)	1.25 µM (inactive)	19.6 µM (inactive)	1.71 µM (inactive)	0.313	0.542 µM (active)	0.617 µM (active)	0.628 µM (active)	0.447 µM (active)	0.652 µM (active)	0.506 µM (active)	0.791 µM (active)	0.392 µM (active)	0.53 µM (active)
CC(NNC(=O)c1cc[n+]([BH2-]C#N)cc1)c1ccccc1F (stereo not given)	> 100 µM (inactive)	> 100 µM (inactive)	> 100 µM (inactive)	> 100 µM (inactive)	> 100 µM (inactive)	3.4 µM (inactive)	> 100 µM (inactive)	> 100 µM (inactive)	–	> 100	> 100 µM (inactive)	> 100 µM (inactive)	> 100 µM (inactive)	> 100 µM (inactive)	> 100 µM (inactive)	> 100 µM (inactive)	> 100 µM (inactive)	> 100 µM (inactive)	> 100 µM (inactive)
COC(=O)C1=CSC2(S1)C(C(=O)OC)=CSc1c2ssc1=O (stereo not given)	16.3 µM (inactive)	1.61 µM (inactive)	1.6 µM (inactive)	2.7 µM (inactive)	2.22 µM (inactive)	6.28 µM (inactive)	2.12 µM (inactive)	3.01 µM (inactive)	2 µM (inactive)	1.54	1.75 µM (inactive)	1.15 µM (inactive)	1.54 µM (inactive)	2.11 µM (inactive)	1.96 µM (inactive)	1.97 µM (inactive)	2 µM (inactive)	1.92 µM (inactive)	2.69 µM (inactive)
Oc1cc(-c2ccccc2)cn2c1nc1ccccc12	6 µM (inactive)	0.767 µM (active)	0.482 µM (active)	4.55 µM (inactive)	3.85 µM (inactive)	11 µM (inactive)	4.06 µM (inactive)	4.68 µM (inactive)	6.37 µM (inactive)	0.643	1.22 µM (inactive)	4.23 µM (inactive)	2.51 µM (inactive)	2.91 µM (inactive)	0.33 µM (active)	4.31 µM (inactive)	1.41 µM (inactive)	> 22 µM (inactive)	3.92 µM (inactive)
C[N+](C)(C)CC1Cc2ccccc2C1=O (stereo not given)	> 10 µM (inactive)	1.72 µM (inactive)	1.56 µM (inactive)	> 10 µM (inactive)	> 10 µM (inactive)	> 10 µM (inactive)	> 7.45 µM (inactive)	> 10 µM (inactive)	> 10 µM (inactive)	4.53	2.07 µM (inactive)	2.72 µM (inactive)	> 10 µM (inactive)	> 4.8 µM (inactive)	> 10 µM (inactive)	5.58 µM (inactive)	2.11 µM (inactive)	> 9.31 µM (inactive)	> 10 µM (inactive)
OC1(c2ccc(Cl)cc2)c2ccccc2C2=Nc3ccccc3CN21 (stereo not given)	20.4 µM (inactive)	6.9 µM (inactive)	18.4 µM (inactive)	> 100 µM (inactive)	45.8 µM (inactive)	27.6 µM (inactive)	22.2 µM (inactive)	> 71.4 µM (inactive)	> 44.9 µM (inactive)	30.8	21.9 µM (inactive)	20.6 µM (inactive)	23.7 µM (inactive)	58.3 µM (inactive)	> 86.9 µM (inactive)	29 µM (inactive)	30.5 µM (inactive)	21 µM (inactive)	33.2 µM (inactive)
COCN1C(=O)[C@@H]2C[C@@H](OC/C=C/CBr)CN2C(=O)c2ccccc21	22.3 µM (inactive)	13.2 µM (inactive)	6.27 µM (inactive)	26.7 µM (inactive)	17.1 µM (inactive)	26.1 µM (inactive)	14.1 µM (inactive)	–	23.2 µM (inactive)	17.9	5.78 µM (inactive)	14.6 µM (inactive)	14.5 µM (inactive)	17.4 µM (inactive)	19 µM (inactive)	18.9 µM (inactive)	15.6 µM (inactive)	14 µM (inactive)	25.1 µM (inactive)
[O-][S@@+]1c2ccc3ccccc3c2N[C@@H]2[C@H]1[C@H]1C=C[C@@H]2C1	40.5 µM (inactive)	39.5 µM (inactive)	24 µM (inactive)	32.4 µM (inactive)	32.4 µM (inactive)	71.6 µM (inactive)	53.7 µM (inactive)	–	35.3 µM (inactive)	33.1	26.1 µM (inactive)	23.9 µM (inactive)	76.4 µM (inactive)	> 100 µM (inactive)	84.1 µM (inactive)	98.6 µM (inactive)	58.9 µM (inactive)	19.5 µM (inactive)	61 µM (inactive)
